Tested on: MV-4-11 cells
Test: Gene expression microarray analysis (Affymetrix PrimeView) and GSEA
Assay type: cell-based, human
Parameters: RFU PODN (11730768_x_at) / Fold change /veh PODN (11730768_x_at) / RFU LINC00158 (11744669_a_at) / Fold change /veh LINC00158 (11744669_a_at) / RFU DUSP10 (11751237_a_at) / Fold change /veh DUSP10 (11751237_a_at) / RFU ID3 (11757404_x_at) / Fold change /veh ID3 (11757404_x_at) / RFU PLEKHG5 (11737974_s_at) / Fold change /veh PLEKHG5 (11737974_s_at) / RFU LRRC4B (11730491_at) / Fold change /veh LRRC4B (11730491_at) / RFU GIMAP4 (11747438_a_at) / Fold change /veh GIMAP4 (11747438_a_at) / RFU KRT8 (11758183_x_at) / Fold change /veh KRT8 (11758183_x_at) / RFU CNN1 (11734310_a_at) / Fold change /veh CNN1 (11734310_a_at) / RFU VPS37D (11726825_at) / Fold change /veh VPS37D (11726825_at) / RFU C10orf10 (11716522_x_at) / Fold change /veh C10orf10 (11716522_x_at) / RFU KIR2DL2 /// KIR2DL4 /// KIR2DL5A /// KIR2DL5B /// KIR2DS1 /// KIR2DS2 /// KIR2DS3 /// KIR2DS4 /// KIR3DL3 /// KIR3DL3 /// KIR3DS1 (11738374_at) / Fold change /veh KIR2DL2 /// KIR2DL4 /// KIR2DL5A /// KIR2DL5B /// KIR2DS1 /// KIR2DS2 /// KIR2DS3 /// KIR2DS4 /// KIR3DL3 /// KIR3DL3 /// KIR3DS1 (11738374_at) / RFU C1QL1 (11718748_at) / Fold change /veh C1QL1 (11718748_at) / RFU TMPRSS4 (11747572_a_at) / Fold change /veh TMPRSS4 (11747572_a_at) / RFU HAMP (11756126_x_at) / Fold change /veh HAMP (11756126_x_at) / RFU RNFT2 (11725882_a_at) / Fold change /veh RNFT2 (11725882_a_at) / RFU NR4A2 (11747474_a_at) / Fold change /veh NR4A2 (11747474_a_at) / RFU ABCC12 (11746883_a_at) / Fold change /veh ABCC12 (11746883_a_at) / RFU TMEM136 (11760407_x_at) / Fold change /veh TMEM136 (11760407_x_at) / RFU CLDN22 /// WWC2 (11732394_at) / Fold change /veh CLDN22 /// WWC2 (11732394_at) / RFU HLA-DPB1 (11760878_x_at) / Fold change /veh HLA-DPB1 (11760878_x_at) / RFU SPINT1 (11716480_a_at) / Fold change /veh SPINT1 (11716480_a_at) / RFU GAP43 (11754022_s_at) / Fold change /veh GAP43 (11754022_s_at) / RFU A4GNT (11735810_at) / Fold change /veh A4GNT (11735810_at) / RFU PRB3 (11715151_x_at) / Fold change /veh PRB3 (11715151_x_at) / RFU TUBB4B (11761932_at) / Fold change /veh TUBB4B (11761932_at) / RFU CAPN14 (11732068_a_at) / Fold change /veh CAPN14 (11732068_a_at) / RFU TMCC2 (11721928_a_at) / Fold change /veh TMCC2 (11721928_a_at) / RFU IRGQ (11745062_a_at) / Fold change /veh IRGQ (11745062_a_at) / RFU FAM174B (11720279_a_at) / Fold change /veh FAM174B (11720279_a_at) / RFU TMPRSS4 (11748680_a_at) / Fold change /veh TMPRSS4 (11748680_a_at) / RFU FAM212B (11763350_a_at) / Fold change /veh FAM212B (11763350_a_at) / RFU PLEKHG5 (11743358_a_at) / Fold change /veh PLEKHG5 (11743358_a_at) / RFU ZSCAN30 (11745921_a_at) / Fold change /veh ZSCAN30 (11745921_a_at) / RFU CMKLR1 (11741424_a_at) / Fold change /veh CMKLR1 (11741424_a_at) / RFU LOC101060620 /// MAPK8IP1 (11723275_at) / Fold change /veh LOC101060620 /// MAPK8IP1 (11723275_at) / RFU SPTSSB (11747773_x_at) / Fold change /veh SPTSSB (11747773_x_at) / RFU PRSS12 (11739890_at) / Fold change /veh PRSS12 (11739890_at) / RFU BIN1 (11741810_x_at) / Fold change /veh BIN1 (11741810_x_at) / RFU WNT11 (11732464_a_at) / Fold change /veh WNT11 (11732464_a_at) / RFU C10orf10 (11716521_a_at) / Fold change /veh C10orf10 (11716521_a_at) / RFU C5orf56 (11738089_at) / Fold change /veh C5orf56 (11738089_at) / RFU CYB561 (11721691_x_at) / Fold change /veh CYB561 (11721691_x_at) / RFU ANKRD19P (11752326_a_at) / Fold change /veh ANKRD19P (11752326_a_at) / RFU OR2T12 /// OR2T33 /// OR2T8 (11738714_s_at) / Fold change /veh OR2T12 /// OR2T33 /// OR2T8 (11738714_s_at) / RFU VCAN (11748164_a_at) / Fold change /veh VCAN (11748164_a_at) / RFU JSRP1 (11732532_at) / Fold change /veh JSRP1 (11732532_at) / RFU KRTAP10-11 (11738290_x_at) / Fold change /veh KRTAP10-11 (11738290_x_at) / RFU MYO3A (11730013_a_at) / Fold change /veh MYO3A (11730013_a_at) / RFU EBF3 (11725865_a_at) / Fold change /veh EBF3 (11725865_a_at) / RFU CAMK2N1 (11719241_x_at) / Fold change /veh CAMK2N1 (11719241_x_at) / RFU C5orf56 (11738088_a_at) / Fold change /veh C5orf56 (11738088_a_at) / RFU OLFML3 (11715873_a_at) / Fold change /veh OLFML3 (11715873_a_at) / RFU LOC100653217 /// NTM (11731650_a_at) / Fold change /veh LOC100653217 /// NTM (11731650_a_at) / RFU MAPK11 (11762145_a_at) / Fold change /veh MAPK11 (11762145_a_at) / RFU FIZ1 (11724087_x_at) / Fold change /veh FIZ1 (11724087_x_at) / RFU OASL (11726364_x_at) / Fold change /veh OASL (11726364_x_at) / RFU SOX15 (11748057_x_at) / Fold change /veh SOX15 (11748057_x_at) / RFU CD79A (11719716_a_at) / Fold change /veh CD79A (11719716_a_at) / RFU HIST1H1D (11736915_at) / Fold change /veh HIST1H1D (11736915_at) / RFU CASKIN2 (11723855_a_at) / Fold change /veh CASKIN2 (11723855_a_at) / RFU LOC730098 (11760151_x_at) / Fold change /veh LOC730098 (11760151_x_at) / RFU OR4N2 (11742367_at) / Fold change /veh OR4N2 (11742367_at) / RFU PRRT2 (11749266_a_at) / Fold change /veh PRRT2 (11749266_a_at) / RFU SNX32 (11753110_a_at) / Fold change /veh SNX32 (11753110_a_at) / RFU CDHR5 (11726645_a_at) / Fold change /veh CDHR5 (11726645_a_at) / RFU RCAN1 (11760418_a_at) / Fold change /veh RCAN1 (11760418_a_at) / RFU FAM167A (11723789_a_at) / Fold change /veh FAM167A (11723789_a_at) / RFU FAM26E (11764081_at) / Fold change /veh FAM26E (11764081_at) / RFU ISYNA1 (11749810_s_at) / Fold change /veh ISYNA1 (11749810_s_at) / RFU ACY1 (11761880_at) / Fold change /veh ACY1 (11761880_at) / RFU 11764098_at / Fold change /veh 11764098_at / RFU SAMD14 (11745864_x_at) / Fold change /veh SAMD14 (11745864_x_at) / RFU NPB (11741838_a_at) / Fold change /veh NPB (11741838_a_at) / RFU TMPRSS6 (11731388_a_at) / Fold change /veh TMPRSS6 (11731388_a_at) / RFU KRTAP10-2 (11738614_at) / Fold change /veh KRTAP10-2 (11738614_at) / RFU ARHGAP8 /// PRR5-ARHGAP8 (11727945_x_at) / Fold change /veh ARHGAP8 /// PRR5-ARHGAP8 (11727945_x_at) / RFU KRTAP5-7 /// NADSYN1 (11734609_at) / Fold change /veh KRTAP5-7 /// NADSYN1 (11734609_at) / RFU RASL12 (11751679_a_at) / Fold change /veh RASL12 (11751679_a_at) / RFU CDKN2B (11736163_a_at) / Fold change /veh CDKN2B (11736163_a_at) / RFU PRF1 (11729649_at) / Fold change /veh PRF1 (11729649_at) / RFU, ZNF638 /// ZNF638-IT1 / Fold change vs veh, ZNF638 /// ZNF638-IT1 / RFU, PANK3 / Fold change vs veh, PANK3 / RFU, SH3YL1 / Fold change vs veh, SH3YL1 / RFU, ZEB2 / Fold change vs veh, ZEB2 / RFU, NRIP1 / Fold change vs veh, NRIP1 / RFU, PTTG1IP / Fold change vs veh, PTTG1IP / RFU, CAPN2 / Fold change vs veh, CAPN2 / RFU, MED14 / Fold change vs veh, MED14 / RFU, SNORA58 / Fold change vs veh, SNORA58 / RFU, C1orf63 / Fold change vs veh, C1orf63 / RFU, LRRFIP1 / Fold change vs veh, LRRFIP1 / RFU, NDUFAF7 / Fold change vs veh, NDUFAF7 / RFU, SLC12A2 / Fold change vs veh, SLC12A2 / RFU, IBTK / Fold change vs veh, IBTK / RFU, ESF1 / Fold change vs veh, ESF1 / Fold change vs veh, TMEM50B / RFU, TAOK1 / Fold change vs veh, TAOK1 / RFU, ACBD3 / Fold change vs veh, ACBD3 / RFU, TMA16 / Fold change vs veh, TMA16 / RFU, RWDD3 / Fold change vs veh, RWDD3 / RFU, BCAT1 / Fold change vs veh, BCAT1 / RFU, EDEM3 / Fold change vs veh, EDEM3 / RFU, TMEM33 / Fold change vs veh, TMEM33 / RFU, WDR75 / Fold change vs veh, WDR75 / RFU, AHCTF1 / Fold change vs veh, AHCTF1 / RFU, TFRC / Fold change vs veh, TFRC / RFU, ZDHHC17 / Fold change vs veh, ZDHHC17 / RFU, NOM1 / Fold change vs veh, NOM1 / RFU, ARL8B / Fold change vs veh, ARL8B / RFU, ZBTB11 / Fold change vs veh, ZBTB11 / RFU, TAMM41 / Fold change vs veh, TAMM41 / RFU, KIAA1704 /// LOC100996395 / Fold change vs veh, KIAA1704 /// LOC100996395 / RFU, ING1 / Fold change vs veh, ING1 / RFU, TRMT61B / Fold change vs veh, TRMT61B / RFU, FUBP3 / Fold change vs veh, FUBP3 / RFU, TP53 / Fold change vs veh, TP53 / RFU, TNKS2 / Fold change vs veh, TNKS2 / RFU, ZFP14 / Fold change vs veh, ZFP14 / RFU, ACTR2 / Fold change vs veh, ACTR2 / RFU, PPP3R1 / Fold change vs veh, PPP3R1 / RFU, PIK3R1 / Fold change vs veh, PIK3R1 / RFU, HNRNPA1 / Fold change vs veh, HNRNPA1 / RFU, RNF170 / Fold change vs veh, RNF170 / RFU, ZNF28 / Fold change vs veh, ZNF28 / RFU, RNGTT / Fold change vs veh, RNGTT / RFU, OGT / Fold change vs veh, OGT / RFU, BRD1 / Fold change vs veh, BRD1 / RFU, MARS / Fold change vs veh, MARS / RFU, ZNF655 / Fold change vs veh, ZNF655 / RFU, FAHD1 / Fold change vs veh, FAHD1 / RFU, BDP1 / Fold change vs veh, BDP1 / RFU, LRRCC1 / Fold change vs veh, LRRCC1 / RFU, ARID1A / Fold change vs veh, ARID1A / RFU, ZNF146 / Fold change vs veh, ZNF146 / RFU, ZNF330 / Fold change vs veh, ZNF330 / RFU, GPN3 / Fold change vs veh, GPN3 / RFU, C9orf123 / Fold change vs veh, C9orf123 / RFU, N4BP2L2 / Fold change vs veh, N4BP2L2 / RFU, ARFIP1 / Fold change vs veh, ARFIP1 / RFU, FAM179B / Fold change vs veh, FAM179B / RFU, BCL10 / Fold change vs veh, BCL10 / RFU, UHRF1BP1L / Fold change vs veh, UHRF1BP1L / RFU, BET1 / Fold change vs veh, BET1 / RFU, CNOT2 / Fold change vs veh, CNOT2 / RFU, ZNF268 / Fold change vs veh, ZNF268 / Fold change vs veh, ZNF507 / RFU, DGCR2 / Fold change vs veh, DGCR2 / RFU, WDSUB1 / Fold change vs veh, WDSUB1 / Fold change vs veh, HSP90B1 /// MIR3652 / RFU, ADSS / Fold change vs veh, ADSS / RFU, GK / Fold change vs veh, GK / RFU, ZNF148 / Fold change vs veh, ZNF148 / RFU, TAF9 / Fold change vs veh, TAF9 / RFU, SLC1A5 / Fold change vs veh, SLC1A5 / RFU, SLMO2 / Fold change vs veh, SLMO2 / RFU, ABCC4 / Fold change vs veh, ABCC4 / RFU, LOC101060439 /// RAP1B / Fold change vs veh, LOC101060439 /// RAP1B / RFU, RFX7 / Fold change vs veh, RFX7 / RFU, GTPBP10 / Fold change vs veh, GTPBP10 / RFU, CNEP1R1 / Fold change vs veh, CNEP1R1 / RFU, BIVM-ERCC5 /// ERCC5 / Fold change vs veh, BIVM-ERCC5 /// ERCC5 / RFU, ILF3 / Fold change vs veh, ILF3 / RFU 11762660_at / Fold change /veh 11762660_at / RFU VCAN (11757783_s_at) / Fold change /veh VCAN (11757783_s_at) / RFU DDX43 (11728927_at) / Fold change /veh DDX43 (11728927_at) / RFU KRT8 (11758188_x_at) / Fold change /veh KRT8 (11758188_x_at) / RFU NKD1 (11759106_at) / Fold change /veh NKD1 (11759106_at) / RFU SRD5A1 (11742802_a_at) / Fold change /veh SRD5A1 (11742802_a_at) / RFU TPSAB1 /// TPSB2 (11721975_s_at) / Fold change /veh TPSAB1 /// TPSB2 (11721975_s_at) / RFU GSTM3 (11746129_a_at) / Fold change /veh GSTM3 (11746129_a_at) / RFU IL23R (11737362_x_at) / Fold change /veh IL23R (11737362_x_at) / RFU TMEM51 (11727254_a_at) / Fold change /veh TMEM51 (11727254_a_at) / RFU PIWIL2 (11732686_x_at) / Fold change /veh PIWIL2 (11732686_x_at) / RFU ORM1 (11744905_x_at) / Fold change /veh ORM1 (11744905_x_at) / RFU CCDC152 (11743942_at) / Fold change /veh CCDC152 (11743942_at) / RFU ECM1 (11717891_a_at) / Fold change /veh ECM1 (11717891_a_at) / RFU IL23R (11748794_a_at) / Fold change /veh IL23R (11748794_a_at) / RFU TNFAIP8L3 (11732012_x_at) / Fold change /veh TNFAIP8L3 (11732012_x_at) / RFU MBOAT4 (11741988_at) / Fold change /veh MBOAT4 (11741988_at) / RFU 11764193_at / Fold change /veh 11764193_at / RFU TMEM53 (11763286_at) / Fold change /veh TMEM53 (11763286_at) / RFU MAGEB2 (11727129_at) / Fold change /veh MAGEB2 (11727129_at) / RFU TMEM200A (11744735_a_at) / Fold change /veh TMEM200A (11744735_a_at) / RFU CCDC152 (11751479_a_at) / Fold change /veh CCDC152 (11751479_a_at) / RFU FAM211A (11726209_a_at) / Fold change /veh FAM211A (11726209_a_at) / RFU RGS16 (11746705_a_at) / Fold change /veh RGS16 (11746705_a_at) / RFU VCAN (11755009_s_at) / Fold change /veh VCAN (11755009_s_at) / RFU RHOB (11743442_s_at) / Fold change /veh RHOB (11743442_s_at) / RFU RGS16 (11720943_a_at) / Fold change /veh RGS16 (11720943_a_at) / RFU RGS16 (11720944_at) / Fold change /veh RGS16 (11720944_at) / RFU, VPS4B / Fold change vs veh, VPS4B / RFU, CREB1 / Fold change vs veh, CREB1 / RFU, DNAJC13 / Fold change vs veh, DNAJC13 / RFU, GNAQ / Fold change vs veh, GNAQ / RFU, CDK5R1 / Fold change vs veh, CDK5R1 / RFU, ZRANB3 / Fold change vs veh, ZRANB3 / RFU, CUL4A / Fold change vs veh, CUL4A / RFU, CCNY / Fold change vs veh, CCNY / RFU, UFL1 / Fold change vs veh, UFL1 / RFU, COG3 / Fold change vs veh, COG3 / RFU, DIAPH2 / Fold change vs veh, DIAPH2 / RFU, SKA2 / Fold change vs veh, SKA2 / RFU, AFF3 / Fold change vs veh, AFF3 / RFU, LMF1 / Fold change vs veh, LMF1 / RFU, IPO11 / Fold change vs veh, IPO11 / RFU, DFFB / Fold change vs veh, DFFB / RFU, FOXP1 / Fold change vs veh, FOXP1 / RFU, CARD8 / Fold change vs veh, CARD8 / RFU, STRN3 / Fold change vs veh, STRN3 / RFU, ADK / Fold change vs veh, ADK / RFU, RASSF2 / Fold change vs veh, RASSF2 / RFU, WIPF1 / Fold change vs veh, WIPF1 / RFU, LARP1B / Fold change vs veh, LARP1B / RFU, RASA1 / Fold change vs veh, RASA1 / RFU, RB1 / Fold change vs veh, RB1 / RFU, PPFIA1 / Fold change vs veh, PPFIA1 / RFU, MAT2A / Fold change vs veh, MAT2A / RFU, CCT5 / Fold change vs veh, CCT5 / RFU, WDR92 / Fold change vs veh, WDR92 / RFU, CUX1 / Fold change vs veh, CUX1 / RFU, TTC7A / Fold change vs veh, TTC7A / RFU, TMEM135 / Fold change vs veh, TMEM135 / RFU, DEPTOR / Fold change vs veh, DEPTOR / RFU, CPM / Fold change vs veh, CPM / RFU, DNAJB6 / Fold change vs veh, DNAJB6 / RFU, CACNA2D3 / Fold change vs veh, CACNA2D3 / RFU, DTX4 / Fold change vs veh, DTX4 / RFU, TFCP2 / Fold change vs veh, TFCP2 / RFU, GMCL1 /// GMCL1P1 / Fold change vs veh, GMCL1 /// GMCL1P1 / RFU, AEBP2 / Fold change vs veh, AEBP2 / RFU, SNHG1 /// SNORD22 /// SNORD25 /// SNORD26 /// SNORD27 /// SNORD28 /// SNORD29 /// SNORD31 / Fold change vs veh, SNHG1 /// SNORD22 /// SNORD25 /// SNORD26 /// SNORD27 /// SNORD28 /// SNORD29 /// SNORD31 / Fold change (Aza/veh), C12orf56 (ProbeSet 11735607_a_at) / Fold change (ACY-1035/veh), C12orf56 (ProbeSet 11735607_a_at) / Fold change (Aza/veh), FGFR1OP (ProbeSet 11751329_s_at) / Fold change (ACY-1035/veh), FGFR1OP (ProbeSet 11751329_s_at) / Fold change (Aza/veh), VPS36 (ProbeSet 11739960_a_at) / Fold change (ACY-1035/veh), VPS36 (ProbeSet 11739960_a_at) / RFU SYPL1 (11715823_x_at) / Fold change /veh SYPL1 (11715823_x_at) / RFU IGFBP7 (11715501_s_at) / Fold change /veh IGFBP7 (11715501_s_at) / RFU REEP3 (11722064_at) / Fold change /veh REEP3 (11722064_at) / RFU IGLL1 (11728026_x_at) / Fold change /veh IGLL1 (11728026_x_at): dose or concentration left out as unconfirmed
Settings: MV-4-11 cells, 48 hours

Nc1ncn([C@@H]2O[C@H](CO)[C@@H](O)[C@H]2O)c(=O)n1 [azacitidine]
Fold change /veh CCDC152 (11743942_at): 1.57
